# Measurements reported in US12478623B2 (INTRA-CELLULAR THERAPIES, INC., priority 2019, dated 2025).
# Legend:
# Male Wistar rats = assay: Conditioned avoidance response (CAR) test, Example 1; format: in vivo, rat; conditions: for Suppression of CAR: 20 minutes; for Treatment effect in CAR: FIG. 2
# schizophrenic patients = conditions: cited from earlier work
# social defeat model = conditions: in vivo; cited from earlier work
# [1] = tested on: pyramidal cells in rat mPFC slices; conditions: lumateperone alone; cited from earlier work
# [2] = tested on: mTOR pathway, including protein kinase Akt and p70S6 kinase; conditions: cited from earlier work
# [3] = tested on: patients with acute exacerbated schizophrenia; conditions: 60 mg P.O. once daily for up to 28 days, vs placebo; cited from earlier work
# [4] = schizophrenia with co-morbid depression
Compound,"Suppression of CAR (Male Wistar rats; lumateperone 7 mg/kg i.p. (saline), vs vehicle/saline, FIG. 3)","CAR, comparison between groups (Male Wistar rats; lumateperone 7 mg/kg, 90 minutes, vs lumateperone 3 mg/kg/saline, FIG. 4)","Suppression of CAR (Male Wistar rats; lumateperone tosylate 3 mg/kg i.p., vs vehicle, FIG. 1)","Suppression of CAR (Male Wistar rats; lumateperone tosylate 10 mg/kg i.p., vs vehicle, FIG. 1)","Treatment effect in CAR (Male Wistar rats; lumateperone tosylate 10 mg/kg i.p., 90 minutes)",Depressive symptoms (schizophrenic patients; [4]),Safety profile (schizophrenic patients; [4]),"Social functioning, positive and negative symptoms, cognition (schizophrenic patients; schizophrenic patients, at a low striatal D2 receptor occupancy)",Effect in the social defeat model (social defeat model),NMDA and AMPA receptor-induced currents [1],Phosphorylation of mTOR pathway proteins [2],Symptoms of emotional experience [3],"Suppression of CAR (Male Wistar rats; risperidone 0.4 mg/kg i.p., vs vehicle, FIG. 1)","Treatment effect in CAR (Male Wistar rats; risperidone 0.4 mg/kg i.p., 90 minutes)"
"CN1CCN2c3c(cccc31)[C@@H]1CN(CCCC(=O)c3ccc(F)cc3)CC[C@@H]12 [lumateperone, 4-((6bR,10aS)-3-methyl-2,3,6b,9,10,10a-hexahydro-1H-pyrido[3′,4′: 4,5]pyrrolo[1,2,3-de]quinoxalin-8(7H)-yl)-1-(4-fluorophenyl)-1-butanone]",significantly suppressed CAR compared to vehicle/saline,significantly different than lumateperone (3 mg/kg)/saline,significantly suppressed CAR compared to vehicle,significantly suppressed CAR compared to vehicle,significant treatment effect,improves the depressive symptoms,placebo-level safety profile and no metabolic changes or extra-pyramidal side effects,"significantly improve social functioning, positive and negative symptoms, as well as impaired cognition",antidepressant-like effects,activates both NMDA and AMPA receptor-induced currents,increases phosphorylation of key proteins in the mTOR pathway,significant and unexpected improvement in symptoms of emotional experience compared to placebo,–,–
Cc1nc2n(c(=O)c1CCN1CCC(c3noc4cc(F)ccc34)CC1)CCCC2 [risperidone],–,–,–,–,–,–,–,–,–,–,–,–,significantly suppressed CAR compared to vehicle,not for the other doses or for risperidone
